Measurements from patent US9211310B2, “Use of a Chinese medicine composition in preparing medicaments for treating secondary prevention of myocardial infarction” (TASLY PHARMACEUTICAL GROUP CO., LTD, priority 2010, dated 2015).

Test system: patients after acute myocardial infarction
Test: TCM symptom score, total and single (chest pain, chest tightness, short breath, fatigue, palpitation, spontaneous perspiration, pale complexion), same clinical trial
Format: in vivo, human
Design: total score of TCM symptom, Mean / total score of TCM symptom, Min / total score of TCM symptom, Max / total score of TCM symptom, Md / change of total score of TCM symptom, Mean / change of total score of TCM symptom, Max / change of total score of TCM symptom, Md: scale not given here
Details: PP
From the text: 3508 patients who were in accordance with the diagnostic standards of AMI for 28 days to 2 years and differentiated as Qi deficiency and blood stagnation syndrome by TCM were studied. 0.5 g Chinese medicine composition prepared by the method of EXAMPLE 1 (Coded as QSYQ) was administrated half an hour after meal, 3 times per day.
They included the overall survival time, angina pectoris score, TCM symptom score and life quality score, where angina pectoris score, TCM symptom score and life quality score were evaluated at randomization, in 1st, 3rd, 6th, 9th, 12th month after treatment and 18th month after follow-up.
The analysis method referred to the angina pectoris score.

[1] = 3 months after treatment-baseline
[2] = 6 months after treatment-baseline

Compound: CC(=O)Oc1ccccc1C(=O)O [Control group, aspirine]
- change of short breath 2, number of patients [1]: 309
- change of short breath 4, % of patients [1]: (2.36%)
- change of short breath 4, number of patients [1]: 34
- change of short breath 6, % of patients [1]: (0.55%)
- change of short breath 6, number of patients [1]: 8
- change of short breath −2, % of patients [1]: (5.27%)
- change of short breath −2, number of patients [1]: 76
- change of short breath −4, % of patients [1]: (0.14%)
- change of short breath −4, number of patients [1]: 2
- change of short breath −6, % of patients [1]: (0.00%)
- change of short breath −6, number of patients [1]: 0
- change of spontaneous perspiration 0, number of patients [1]: 898
- change of spontaneous perspiration 0, percent of patients [1]: (62.23%)
- change of spontaneous perspiration 1, number of patients [1]: 342
- change of spontaneous perspiration 1, percent of patients [1]: (23.70%)
- change of spontaneous perspiration 2, number of patients [1]: 71
- change of spontaneous perspiration 2, percent of patients [1]: (4.92%)
- change of spontaneous perspiration 3, number of patients [1]: 16
- change of spontaneous perspiration 3, percent of patients [1]: (1.11%)
- change of spontaneous perspiration −1, number of patients [1]: 101
- change of spontaneous perspiration −1, percent of patients [1]: (7.00%)
- change of spontaneous perspiration −2, number of patients [1]: 13
- change of spontaneous perspiration −2, percent of patients [1]: (0.90%)
- change of spontaneous perspiration −3, number of patients [1]: 2
- change of spontaneous perspiration −3, percent of patients [1]: (0.14%)
- distribution of total score of TCM symptom: Medium, number of patients (6 months after treatment): 377
- distribution of total score of TCM symptom: Medium, percentage of patients (6 months after treatment): (26.40%)
- distribution of total score of TCM symptom: Mild, number of patients (6 months after treatment): 1044
- distribution of total score of TCM symptom: Mild, percentage of patients (6 months after treatment): (73.11%)
- distribution of total score of TCM symptom: Severe, number of patients (6 months after treatment): 7
- distribution of total score of TCM symptom: Severe, percentage of patients (6 months after treatment): (0.49%)
- fatigue score 0, % of patients (6 months after treatment): (31.00%)
- fatigue score 0, number of patients (6 months after treatment): 443
- fatigue score 2, % of patients (6 months after treatment): (61.65%)
- fatigue score 2, number of patients (6 months after treatment): 881
- fatigue score 4, % of patients (6 months after treatment): (6.79%)
- fatigue score 4, number of patients (6 months after treatment): 97
- fatigue score 6, % of patients (6 months after treatment): (0.56%)
- fatigue score 6, number of patients (6 months after treatment): 8
- pale complexion score 0, number of patients (6 months after treatment): 750
- pale complexion score 0, percent of patients (6 months after treatment): (52.48%)
- pale complexion score 1, number of patients (6 months after treatment): 540
- pale complexion score 1, percent of patients (6 months after treatment): (37.79%)
- pale complexion score 2, number of patients (6 months after treatment): 133
- pale complexion score 2, percent of patients (6 months after treatment): (9.31%)
- pale complexion score 3, number of patients (6 months after treatment): 6
- pale complexion score 3, percent of patients (6 months after treatment): (0.42%)
- palpitation score 0, number of patients (6 months after treatment): 456
- palpitation score 0, percent of patients (6 months after treatment): (31.91%)
- palpitation score 2, number of patients (6 months after treatment): 764
- palpitation score 2, percent of patients (6 months after treatment): (53.46%)
- palpitation score 4, number of patients (6 months after treatment): 192
- palpitation score 4, percent of patients (6 months after treatment): (13.44%)
- palpitation score 6, number of patients (6 months after treatment): 17
- palpitation score 6, percent of patients (6 months after treatment): (1.19%)
- short breath score 0, % of patients (6 months after treatment): (25.21%)
- short breath score 0, number of patients (6 months after treatment): 360
- short breath score 2, % of patients (6 months after treatment): (0.07%)
- short breath score 2, number of patients (6 months after treatment): 1
- short breath score 3, % of patients (6 months after treatment): (58.68%)
- short breath score 3, number of patients (6 months after treatment): 838
- short breath score 6, % of patients (6 months after treatment): (15.55%)
- short breath score 6, number of patients (6 months after treatment): 222
- short breath score 9, % of patients (6 months after treatment): (0.49%)
- short breath score 9, number of patients (6 months after treatment): 7
- spontaneous perspiration score 0, number of patients (6 months after treatment): 628
- spontaneous perspiration score 0, percent of patients (6 months after treatment): (43.98%)
- spontaneous perspiration score 1, number of patients (6 months after treatment): 676
- spontaneous perspiration score 1, percent of patients (6 months after treatment): (47.34%)
- spontaneous perspiration score 2, number of patients (6 months after treatment): 117
- spontaneous perspiration score 2, percent of patients (6 months after treatment): (8.19%)
- spontaneous perspiration score 3, number of patients (6 months after treatment): 7
- spontaneous perspiration score 3, percent of patients (6 months after treatment): (0.49%)
- total score of TCM symptom, Max (6 months after treatment): 34.00
- total score of TCM symptom, Md (6 months after treatment): 9.00
- total score of TCM symptom, Mean (6 months after treatment): 9.79
- total score of TCM symptom, Min (6 months after treatment): 0.00
- change of fatigue 0, % of patients [2]: (55.47%)
- change of fatigue 0, number of patients [2]: 791
- change of fatigue 2, % of patients [2]: (30.01%)
- change of fatigue 2, number of patients [2]: 428
- change of fatigue 4, % of patients [2]: (6.80%)
- change of fatigue 4, number of patients [2]: 97
- change of fatigue 6, % of patients [2]: (1.12%)
- change of fatigue 6, number of patients [2]: 16
- change of fatigue −2, % of patients [2]: (6.03%)
- change of fatigue −2, number of patients [2]: 86
- change of fatigue −4, % of patients [2]: (0.56%)
- change of fatigue −4, number of patients [2]: 8
- change of fatigue −6, % of patients [2]: (0.00%)
- change of fatigue −6, number of patients [2]: 0
- change of pale complexion 0, number of patients [2]: 1104
- change of pale complexion 0, percent of patients [2]: (77.47%)
- change of pale complexion 1, number of patients [2]: 272
- change of pale complexion 1, percent of patients [2]: (19.09%)
- change of pale complexion −1, number of patients [2]: 49
- change of pale complexion −1, percent of patients [2]: (3.44%)
- change of palpitation 0, number of patients [2]: 842
- change of palpitation 0, percent of patients [2]: (59.09%)
- change of palpitation 1, number of patients [2]: 431
- change of palpitation 1, percent of patients [2]: (30.25%)
- change of palpitation 2, number of patients [2]: 53
- change of palpitation 2, percent of patients [2]: (3.72%)
- change of palpitation 3, number of patients [2]: 7
- change of palpitation 3, percent of patients [2]: (0.49%)
- change of palpitation −1, number of patients [2]: 88
- change of palpitation −1, percent of patients [2]: (6.18%)
- change of palpitation −2, number of patients [2]: 4
- change of palpitation −2, percent of patients [2]: (0.28%)
- change of short breath 0, % of patients [2]: (63.53%)
- change of short breath 0, number of patients [2]: 906
- change of short breath 2, % of patients [2]: (27.14%)
- change of short breath 2, number of patients [2]: 387
- change of short breath 4, % of patients [2]: (3.16%)
- change of short breath 4, number of patients [2]: 45
- change of short breath 6, % of patients [2]: (0.56%)
- change of short breath 6, number of patients [2]: 8
- change of short breath −2, % of patients [2]: (5.33%)
- change of short breath −2, number of patients [2]: 76
- change of short breath −4, % of patients [2]: (0.14%)
- change of short breath −4, number of patients [2]: 2
- change of short breath −6, % of patients [2]: (0.14%)
- change of short breath −6, number of patients [2]: 2
